Measurements reported in patent publication US5079358A, “6H-pyrazolo-[4,5,1-d,e]acridin-6-one derivatives having anit-tumor activity” (Kyowa Hakko Kogyo Co., Ltd., priority 1988, dated 1992).
Values after ≈ are worked out from the molar mass of the structure shown.

tested on: human cancer cells (HeLaS3); test: Inhibitory effect on growth of human cancer cells (HeLaS3); format: cell-based; conditions: Homo sapiens, HeLa S3, 72 hours at 37° C., Neutral Red staining, 550 nm, read-out: IC50
Protocol: Inhibitory effect on growth of human cancer cells (HeLaS3):
HeLaS, cells were suspended in a medium comprising MEM medium (Nissui Pharmaceutical Co., Ltd.) and 2 mM glutamine (hereinafter referred to as Medium A) to a concentration of 3×10^4 cells/ml. The cell suspension thus prepared was put into wells of a 96-well microtiter plate in an amount of 0.1 ml/well. The cells on the plate were incubated in a CO2 -incubater at 37° C. for 20 hours, and 0.05 ml of a sample containing a test compound and appropriately diluted with Medium A was added to each well. The cells were further incubated in the CO2 -incubater at 37° C. for 72 hours. After the culture supernatant was removed, a medium comprising Medium A and 0.02% Neutral Red was added to the residue in an amount of 0.1 ml/well, followed by incubation at 37° C. for one hour in the CO2 -incubater, whereby the cells were stained. The culture supernatant was removed and the residue was washed once with physiological saline solution. The pigment was extracted with 0.001 N-HCl/30%-ethanol, and the absorbance was determined at 550 nm with a microplate reader. The absorbance determined for intact cells was compared with that for the cells treated with the test compound of a known concentration, and the concentration of the test compound for inhibiting 50% growth of the cells (IC50) was calculated.

First: O=c1c2ccccc2n2nc(CN(CCO)CCO)c3cccc1c32 [Compound 7, 2-Bis(2-hydroxyethyl)aminomethyl-6H-pyrazolo[4,5,1-d,e]acridin-6-one]
Second: CN(C)CCNC(=O)c1nn2c3ccccc3c(=O)c3cccc1c32 [Compound 3, 2-(2-Dimethylaminoethyl)aminocarbonyl-6H-pyrazolo[4,5,1-d,e]acridin-6-one]
The IC50 of the first is 3.6-fold higher: 8.89 µg/mL (≈ 26.4 µM) for the first, 2.5 µg/mL (≈ 7.48 µM) for the second.

Compared with `O=c1c2ccccc2n2nc(CNCCN3CCOCC3)c3cccc1c32` [Compound 8, 2-(2-Morpholinoethyl)aminomethyl-6H-pyrazolo[4,5,1-d,e]acridin-6-one], `Nc1ccc2c(CNCCN3CCOCC3)nn3c4ccccc4c(=O)c1c23` [Compound 17, 5-Amino-2-(2-morpholinoethyl)aminomethyl-6H-[4,5,1-d,e]-acridin-6-one] is 2.5-fold lower in IC50: 4.9 µg/mL (≈ 13.5 µM) for the first, 1.96 µg/mL (≈ 5.19 µM) for the second.

First: CNCCNCc1nn2c3ccccc3c(=O)c3c(NCCNC)ccc1c32 [Compound 33, 5-(2-Methylaminoethyl)amino-2-(2-methylaminoethyl)aminomethyl-6H-pyrazolo[4,5,1-d,e]acridin-6-one]
Second: CNCCCNCc1nn2c3ccccc3c(=O)c3c(NCCCNC)ccc1c32 [Compound 32, 5-(3-Methylaminopropyl)amino-2-(3-methylaminopropyl)aminomethyl-6H-pyrazolo[4,5,1-d,e]acridin-6-one]
The IC50 of the first is 2.3-fold higher: 2.69 µg/mL (≈ 7.11 µM) for the first, 1.16 µg/mL (≈ 2.85 µM) for the second.

Going from `O=C(NCCN1CCOCC1)c1nn2c3ccccc3c(=O)c3cccc1c32` [Compound 5, 2-(2-Morpholinoethyl)aminocarbonyl-6H-pyrazolo[4,5,1-d,e]acridin-6-one] to `COc1cccc2c1c(=O)c1cccc3c(C(=O)NCCN(C)C)nn2c31` [Compound 4, 7-Methoxy-2-(2-dimethylaminoethyl)aminocarbonyl-6H-pyrazolo[4,5,1-d,e]acridin-6-one], the IC50 falls from 7.2 µg/mL (≈ 19.1 µM) to 2.98 µg/mL (≈ 8.18 µM) (2.4-fold).

`NCCNCc1nn2c3ccccc3c(=O)c3c(N)ccc1c32` [Compound 15, 5-Amino-2-(2-aminoethyl]aminomethyl-6H-pyrazolo[4,5,1-d,e]acridin-6-one] and `Nc1ccc2c(CNCCNCCO)nn3c4ccccc4c(=O)c1c23` [Compound 16, 5-Amino-2-[2-(2-hydroxyethylamino)ethyl]aminomethyl-6H-[4,5,1-d,e]acridin-6-one] are within 1.5-fold of each other in IC50: 0.71 µg/mL (≈ 2.31 µM) for the first, 0.87 µg/mL (≈ 2.48 µM) for the second.

`Cc1nn2c3ccccc3c(=O)c3c(N)ccc1c32` [Compound 11, 5-Amino-2-methyl-6H-pyrazolo[4,5,1-d,e]acridin-6-one] and `CNCCNc1ccc2c(CN(C)CCN)nn3c4ccccc4c(=O)c1c23` [Compound 38, 2-[N-(2-aminoethyl)-N-methyl]aminomethyl-5-(2-methylaminoethyl)amino-6H-pyrazolo[4,5,1-d,e]acridin-6-one] are within 1.5-fold of each other in IC50: 2.16 µg/mL (≈ 8.67 µM) for the first, 2.89 µg/mL (≈ 7.64 µM) for the second.

First: CN(C)CCNCc1nn2c3cccc(O)c3c(=O)c3c(NCCNCCO)ccc1c32 [Compound 42]
Second: CCNCCNCc1nn2c3ccccc3c(=O)c3c(NCCNCC)ccc1c32 [Compound 34, 5-(2-Ethylaminoethyl)amino-2-(2-ethylaminoethyl)aminomethyl-6H-pyrazolo[4,5,1-d,e]acridin-6-one]
The IC50 of the first is 14-fold lower: 0.12 µg/mL (≈ 0.274 µM) for the first, 1.72 µg/mL (≈ 4.23 µM) for the second.

Compared with `NCCCCNCc1nn2c3ccccc3c(=O)c3c(NCCCCN)ccc1c32` [Compound 37, 5-(4-Aminobutyl)amino-2-(4-aminobutyl)aminomethyl-6H-pyrazolo[4,5,1-d,e]acridin-6-one], `CN(C)CCCNCc1nn2c3ccccc3c(=O)c3c(NCCCN(C)C)ccc1c32` [Compound 39, 5-(3-Dimethylaminopropyl)amino-2-(3-dimethylaminopropyl)aminomethyl-6H-pyrazolo[4,5,1-d,e]acridin-6-one] is 3.9-fold higher in IC50: 2.11 µg/mL (≈ 5.19 µM) for the first, 8.33 µg/mL (≈ 19.2 µM) for the second.

First: COc1cccc2c1C(=O)c1c(O)c3c(c(O)c1C2=O)C[C@@](O)(C(=O)CO)C[C@@H]3O[C@H]1C[C@H](N)[C@H](O)[C@H](C)O1 [Adriamycin, reference compound]
Second: O=c1c2ccccc2n2nc(CNCCN3CCOCC3)c3ccc(NCCN4CCOCC4)c1c32 [Compound 35, 5-(2-Morpholinoethyl)amino-2-(2-morpholinoethyl)aminomethyl-6H-pyrazolo[4,5,1-d,e]acridin-6-one]
The IC50 of the first is lower: 0.009 to 0.05 µg/mL (≈ 0.0166 to 0.092 µM) for the first, 3.37 µg/mL (≈ 6.87 µM) for the second.
